Measurements reported in US20070299129A1, “Compounds and derivatives for the treatment of medical conditions by modulating hormone-sensitive lipase activity” (DEVIRIS INC., priority 2006, published 2007).
Where “and” joins values, the source holds several entries; their conditions need not be identical. Equal entries are not always repeated.

Key:
[1] = target: T1, recombinant His-HSL (hormone-sensitive lipase) (Rattus norvegicus, UniProt P15304); test: Assay for potency of inhibition on HSL activity (neutral cholesteryl ester hydrolase activity, cholesteryl [1-14C]oleate), Example 1; type: biochemical; conditions: for % inhibition of HSL: in the presence of DTT (1 mM), inhibitor range 0-2.4 mg/mL (FIG. 1, Table 1); for HSL Activity (DPM) (average): HSL + DTT (1 mM), control without inhibitor 1585.64 DPM
T1 construct: cloning full-length rat HSL cDNA into the SmaI site of pAcHLT-A; His6 (N); made in house; host or cells: Sf21 insect cells (baculovirus, BaculoGold)
T1 sequence (P15304 1-768 isoform P15304-2): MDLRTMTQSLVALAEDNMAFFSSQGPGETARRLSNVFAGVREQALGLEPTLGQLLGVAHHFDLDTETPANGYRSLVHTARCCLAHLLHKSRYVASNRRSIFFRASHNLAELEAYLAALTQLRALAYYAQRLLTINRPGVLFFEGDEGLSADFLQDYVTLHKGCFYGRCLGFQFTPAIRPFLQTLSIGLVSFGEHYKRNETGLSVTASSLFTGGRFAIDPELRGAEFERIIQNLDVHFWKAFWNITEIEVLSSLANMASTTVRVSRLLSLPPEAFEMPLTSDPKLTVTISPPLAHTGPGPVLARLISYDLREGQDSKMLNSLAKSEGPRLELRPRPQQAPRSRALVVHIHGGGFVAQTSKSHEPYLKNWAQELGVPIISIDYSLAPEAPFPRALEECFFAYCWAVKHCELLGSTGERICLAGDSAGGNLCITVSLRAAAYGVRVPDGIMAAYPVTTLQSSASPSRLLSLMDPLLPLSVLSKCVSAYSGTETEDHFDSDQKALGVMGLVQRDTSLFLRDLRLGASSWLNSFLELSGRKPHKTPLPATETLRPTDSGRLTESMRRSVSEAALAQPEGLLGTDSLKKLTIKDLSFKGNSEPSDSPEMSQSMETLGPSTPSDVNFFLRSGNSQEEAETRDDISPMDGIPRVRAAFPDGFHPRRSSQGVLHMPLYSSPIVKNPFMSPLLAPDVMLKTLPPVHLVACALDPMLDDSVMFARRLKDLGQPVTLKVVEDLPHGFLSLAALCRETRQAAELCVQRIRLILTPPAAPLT
Procedure: Production of Recombinant HSL: Recombinant His-HSL was generated by cloning full-length rat HSL cDNA into the SmaI site of pAcHLT-A containing a His6 tag. pAcHLT-A-HSL (5 μg) was co-transfected into Sf21 cells with 0.5 μg of BaculoGold™ DNA using the transfection kit from the manufacturer. The titer of the recombinant virus was determined using an end point dilution assay, and the virus was re-amplified to a final titer of 1.5×10^7 pfu/ml. To produce recombinant proteins, Sf21 cells were grown in 150 mm Petri dishes and each 2×10^7 cells were infected with 100 μl of the high titer recombinant virus; cells were harvested three days after infection. After harvesting and cell extraction, His-HSL was purified on a Ni-agarose column.
Preparation of Substrate for Neutral Cholesteryl Ester Hydrolase Activity Assay: HSL activity was determined as neutral cholesteryl ester hydrolase activity using a cholesteryl[1-14C]oleate emulsion for measurement of cellular activity, as described previously. Substrate for the cholesteryl ester assay was prepared by adding 1.25 μCi cholesteryl [1-14C]oleate (purified by thin-layer chromatography), 0.043 mmol phosphatidylcholine, and 0.011 mmol cholesteryl oleate into 2.5 mL of 100 mM potassium phosphate buffer (pH 7.0) containing 5 mM sodium taurocholate. The substrate solution was vortexed and then sonicated for 3 hours with a Branson Sonifier/Cell Disruptor model W-350 on an output setting of 5.0 (50%). The substrate was centrifuged at 3000 rpm for 15 min to remove metallic fragments released by the probe and stored under nitrogen at 4° C. for up to one week.
Preparation of Inhibitor Stock Solution: Inhibitors (fraction # O-4355, O-4350, O-4361, O-4456, O-4457) were obtained from olives, olive oil, roots, bark and leaves from olea europeae species as previously described (Paiva-Martins et al., J. Agric. Food Chem., 49:4214-4219, 2001) and dissolved in 200 μL DMSO with 800 μL distilled water at a concentration of 10 mg/ml. This was regarded as stock solution. 0-60 μL of the stock solution were added to the HSL assay to achieve a final concentration of 0-2.4 mg/ml of the inhibitors. The same volume of DMSO without inhibitors was performed as a control.
Assay for Potency of Inhibition on HSL Activity by the Inhibitors: Aliquots of recombinant HSL protein and various concentrations of inhibitors (0-2.4 mg/mL final concentration) were mixed and the volume adjusted to 100 μL and mixed with 140 μL 0.05% bovine serum albumin in 100 mM potassium phosphate, pH 7.0. After the addition of 10 μL of substrate (100 μM final concentration), the assay was carried out at 37° C. for 60 min. The reaction was stopped by the addition of chloroform:methanol:heptane (250:230:180). After the addition of borate/carbonate buffer (0.1 M, pH, 10.5), the tubes were vortexed and centrifuged, and aliquots of the upper phase were taken for liquid scintillation counting in a Beckman scintillation counter.

COX-2 = target: T2, COX-2 (Homo sapiens, UniProt P35354); conditions: Smith et al., Organic Letters, 7:5075-5078, 2005; cited from earlier work
T2 sequence (P35354 18-604): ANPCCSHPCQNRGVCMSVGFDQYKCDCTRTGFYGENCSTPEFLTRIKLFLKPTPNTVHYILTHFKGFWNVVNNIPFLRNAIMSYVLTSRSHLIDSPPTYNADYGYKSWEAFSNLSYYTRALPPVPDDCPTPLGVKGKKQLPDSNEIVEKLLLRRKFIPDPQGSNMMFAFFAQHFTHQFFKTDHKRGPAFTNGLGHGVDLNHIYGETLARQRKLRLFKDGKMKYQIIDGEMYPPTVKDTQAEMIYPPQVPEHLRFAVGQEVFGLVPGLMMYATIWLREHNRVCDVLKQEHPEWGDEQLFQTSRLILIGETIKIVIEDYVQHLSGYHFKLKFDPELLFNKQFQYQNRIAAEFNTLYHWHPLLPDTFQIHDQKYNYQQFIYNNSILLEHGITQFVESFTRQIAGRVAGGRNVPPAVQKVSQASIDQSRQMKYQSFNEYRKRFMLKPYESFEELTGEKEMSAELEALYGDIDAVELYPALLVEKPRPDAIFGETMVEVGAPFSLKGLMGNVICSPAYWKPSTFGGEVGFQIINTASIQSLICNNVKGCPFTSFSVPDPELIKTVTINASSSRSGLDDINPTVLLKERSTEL

% inhibition of HSL [1]	HSL Activity (DPM) (average) ([1]; inhibitor 0.4 mg/mL)	HSL Activity (DPM) (average) ([1]; inhibitor 0.8 mg/mL)	HSL Activity (DPM) (average) ([1]; inhibitor 1.2 mg/mL)	HSL Activity (DPM) (average) ([1]; inhibitor 1.6 mg/mL)	HSL Activity (DPM) (average) ([1]; inhibitor 2.0 mg/mL)	HSL Activity (DPM) (average) ([1]; inhibitor 2.4 mg/mL)	SMILES	anti-COX-2 activity (COX-2)
98% and 98.42%	123.5	52.6035	51.145	88.595	49.56	25.035	C/C=C(/C=O)[C@@H](CC=O)CC(=O)OCCc1ccc(O)cc1 [O-4456, para-hydroxyphenylelenolic acid dialdehyde]	having anti-COX-2 activity
97% and 97.95%	214.85	87.105	48.025	49.885	39.545	32.495	CC=C(C=O)C(CC=O)CC(=O)OCCc1ccc(O)c(O)c1 (stereo not drawn) [O-4457, 3,4-dihydroxyphenylelenolic acid dialdehyde]	
